Laboratory results from patent publication US9394297B2, “Amides as pim inhibitors” (AMGEN INC., priority 2012, dated 2016).
Where two headings read alike, the source gives them in different places.

What was measured:
[1] = biological target: Pim-1 (Homo sapiens (Human), UniProt P11309); experiment: Pim enzyme assay (HTRF, 96-well), Pim-1; type: biochemical; details: full length recombinant Pim-1, biotinylated-BAD (S112) peptide, 10-point curve, 2 h RT, read-out: Pim-1 IC50 IP
How it was run: (§1)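 HTRF detection of biotinylated BAD (S112) phosphorylation by full-length recombinant His-tagged Pim-1 or Pim-2 in 60 mM Hepes pH 7.0, 0.05% BSA, 2 mM DTT at 22 °C: 2 h for Pim-1, 45 min for Pim-2. Stopped with EDTA; IC50 from 4-parameter logistic fit of percent of control.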

[2] = biological target: Pim-2 (Homo sapiens (Human), UniProt Q9P1W9); experiment: Pim enzyme assay (HTRF, 96-well), Pim-2; type: biochemical; details: full length recombinant Pim-2, biotinylated-BAD (S112) peptide, 10-point curve, 45 min RT, read-out: Pim-2 IC50 IP
How it was run: as §1

[3] = tested on: KMS-12-BM myeloma cell line; experiment: Pim KMS-12 cell assay (phospho-BAD S112 / total BAD, MSD); details: Homo sapiens, KMS-12-BM
[4] = read-out: KMS-12-BM IC50 IP, KMS-12-BM cells, phospho-BAD (S112) vs total BAD, 1 hour 50 min with compound

Pim-2, sequence (Q9P1W9 whole entry): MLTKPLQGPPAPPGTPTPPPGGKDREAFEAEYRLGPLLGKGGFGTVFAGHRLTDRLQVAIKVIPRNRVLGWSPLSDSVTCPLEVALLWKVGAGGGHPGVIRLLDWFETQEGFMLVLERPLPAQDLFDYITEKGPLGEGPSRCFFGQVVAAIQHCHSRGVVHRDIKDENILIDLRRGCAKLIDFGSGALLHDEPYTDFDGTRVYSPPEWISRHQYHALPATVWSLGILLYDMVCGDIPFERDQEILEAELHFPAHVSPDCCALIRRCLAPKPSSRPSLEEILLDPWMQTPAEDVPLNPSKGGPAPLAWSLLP
Pim-1, sequence (P11309 whole entry): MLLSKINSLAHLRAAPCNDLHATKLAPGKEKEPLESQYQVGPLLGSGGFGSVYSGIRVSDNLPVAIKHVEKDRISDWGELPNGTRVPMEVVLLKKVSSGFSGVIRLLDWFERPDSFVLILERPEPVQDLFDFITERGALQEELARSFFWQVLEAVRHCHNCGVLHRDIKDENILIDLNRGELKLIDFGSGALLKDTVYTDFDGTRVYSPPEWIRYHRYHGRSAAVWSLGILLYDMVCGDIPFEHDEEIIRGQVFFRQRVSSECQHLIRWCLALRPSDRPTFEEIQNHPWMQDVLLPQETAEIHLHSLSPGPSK

Structure (SMILES)	IC50 [1] [nM]	IC50 [2] [nM]	IC50 [3, 4] [nM]	IC50 ([3]; read-out: KMS-12-BM IC50 IP) [nM]
O=C1NCCn2cc(-c3cccc4ccc(Nc5ccccc5)nc34)cc21 [Example 165, 7-(2-(phenylamino)quinolin-8-yl)-3,4-dihydropyrrolo[1,2-a]pyrazin-1(2H)-one]	6.7	17.9	3850	
N[C@H]1CCC[C@H](Nc2ccc3cccc(-c4cc5c([nH]4)CCNC5=O)c3n2)C1 (racemic) [Example 120, rac-2-(2-((trans-3-aminocyclohexyl)amino)quinolin-8-yl)-6,7-dihydro-1H-pyrrolo[3,2-c]pyridin-4(5H)-one]	0.6	4.6	2210	
O=C1NCCc2[nH]c(-c3cccc4ncc(Oc5ccccc5)nc34)cc21 [Example 177, 2-(3-phenoxyquinoxalin-5-yl)-6,7-dihydro-1H-pyrrolo[3,2-c]pyridin-4(5H)-one]	12.4	18.4	4660	
Cc1cccc(C)c1Nc1ccc2cccc(-c3cc4c([nH]3)CCNC4=O)c2n1 [Example 102, 2-(2-((2,6-dimethylphenyl)amino)quinolin-8-yl)-6,7-dihydro-1H-pyrrolo[3,2-c]pyridin-4(5H)-one]	7.6	73.9		10400
CN(c1ccccc1)c1cnc2cccc(-c3cc4c([nH]3)CCNC4=O)c2n1 [Example 188, 2-(3-(methyl(phenyl)amino)quinoxalin-5-yl)-6,7-dihydro-1H-pyrrolo[3,2-c]pyridin-4(5H)-one]	2.8	4.4		1010
Cc1cccc(Nc2ccc3cccc(-c4cc5c([nH]4)CCNC5=O)c3n2)c1 [Example 44, 2-(2-((3-methylphenyl)amino)-8-quinolinyl)-1,5,6,7-tetrahydro-4H-pyrrolo[3,2-c]pyridin-4-one]	7.2	29.2		13100
O=C1NCCc2[nH]c(-c3cccc4ccc(NCc5ccccc5)nc34)cc21 [Example 21, 2-(2-(benzylamino)quinolin-8-yl)-6,7-dihydro-1H-pyrrolo[3,2-c]pyridin-4(5H)-one]	2.8	21.6	4920	
O=C1NCCc2[nH]c(-c3cccc4ccc(NC5CCCCC5)nc34)cc21 [Example 83, 2-(2-(cyclohexylamino)quinolin-8-yl)-6,7-dihydro-1H-pyrrolo[3,2-c]pyridin-4(5H)-one]	2	15		2910
Cc1nc2cccc(-c3cc4c([nH]3)CCNC4=O)c2nc1NC1CCCCC1 [Example 132, 2-(3-(cyclohexylamino)-2-methylquinoxalin-5-yl)-6,7-dihydro-1H-pyrrolo[3,2-c]pyridin-4(5H)-one]	5.3	4.9		143
O=C1NCCc2[nH]c(-c3cccc4ccc(Nc5cccc(F)c5)nc34)cc21 [Example 45, 2-(2-((3-fluorophenyl)amino)-8-quinolinyl)-1,5,6,7-tetrahydro-4H-pyrrolo[3,2-c]pyridin-4-one]	1.5	7.7	1450	
O=C1NCCc2[nH]c(-c3cccc4ccc(Nc5ccc(Cl)cc5)nc34)cc21 [Example 15, 2-(2-((4-chlorophenyl)amino)quinolin-8-yl)-6,7-dihydro-1H-pyrrolo[3,2-c]pyridin-4(5H)-one]	4	20.4		3230
Cc1nc2cccc(-c3cc4c([nH]3)CCNC4=O)c2nc1NC1COC1 [Example 196, 2-(2-methyl-3-(oxetan-3-ylamino)quinoxalin-5-yl)-6,7-dihydro-1H-pyrrolo[3,2-c]pyridin-4(5H)-one]	23.8	11.4	585	
O=C1NCCc2[nH]c(-c3c(F)ccc4ccc(Nc5cccnc5)nc34)cc21 [Example 228, 2-(7-fluoro-2-(pyridin-3-ylamino)quinolin-8-yl)-6,7-dihydro-1H-pyrrolo[3,2-c]pyridin-4(5H)-one]	3	0.9	1610	

Continued, in another order:

IC50 [1] [nM]	IC50 [2] [nM]	IC50 [3, 4] [nM]	Structure (SMILES)	IC50 ([3]; read-out: KMS-12-BM IC50 IP) [nM]
6.1	10.3	7000	O=C1NCCc2[nH]c(-c3cccc4ccc(Oc5ccccc5F)nc34)cc21 [Example 11, 2-(2-(2-fluorophenoxy)quinolin-8-yl)-6,7-dihydro-1H-pyrrolo[3,2-c]pyridin-4(5H)-one]	
1.1	2.9	1130	Nc1cccc(Nc2ccc3cccc(-c4cc5c([nH]4)CCNC5=O)c3n2)c1 [Example 110, 2-(2-((3-aminophenyl)amino)quinolin-8-yl)-6,7-dihydro-1H-pyrrolo[3,2-c]pyridin-4(5H)-one]	
7.4	30.5	14400	O=C1NCCc2[nH]c(-c3cccc4ccc(OC5CCCC5)nc34)cc21 [Example 80, 2-(2-(cyclopentyloxy)quinolin-8-yl)-6,7-dihydro-1H-pyrrolo[3,2-c]pyridin-4(5H)-one]	
1.9	4.3	1280	CC1CNC(=O)c2cc(-c3cccc4ncc(Nc5ccccc5)nc34)[nH]c21 (racemic) [Example 187, rac-7-methyl-2-(3-(phenylamino)quinoxalin-5-yl)-6,7-dihydro-1H-pyrrolo[3,2-c]pyridin-4(5H)-one]	
1	5.2	2740	O=C1NCCc2[nH]c(-c3cccc4ccc(Nc5c(F)cccc5Cl)nc34)cc21 [Example 7, 2-(2-((2-chloro-6-fluorophenyl)amino)quinolin-8-yl)-6,7-dihydro-1H-pyrrolo[3,2-c]pyridin-4(5H)-one]	
4.4	22.6	953	O=C1NCCc2[nH]c(-c3cccc4ccc(NC5CCOCC5)nc34)cc21 [Example 85, 2-(2-((Tetrahydro-2H-pyran-4-yl)amino)quinolin-8-yl)-6,7-dihydro-1H-pyrrolo[3,2-c]pyridin-4(5H)-one]	
3.6	9.1	3460	O=C1NCCc2[nH]c(-c3cccc4ccc(Oc5cccc(F)c5)nc34)cc21 [Example 42, 2-(2-(3-fluorophenoxy)-8-quinolinyl)-1,5,6,7-tetrahydro-4H-pyrrolo[3,2-c]pyridin-4-one]	
0.3	0.6	1390	CCN(c1cccnc1)c1ccc2cccc(-c3cc4c([nH]3)CCNC4=O)c2n1 [Example 32, 2-(2-(ethyl(pyridin-3-yl)amino)quinolin-8-yl)-6,7-dihydro-1H-pyrrolo[3,2-c]pyridin-4(5H)-one]	
1.9	2.8	390	O=C1NCCc2[nH]c(-c3cccc4ncc(Nc5ccccc5)nc34)cc21 [Example 180, 2-(3-(phenylamino)quinoxalin-5-yl)-6,7-dihydro-1H-pyrrolo[3,2-c]pyridin-4(5H)-one]	
0.9	3.9	539	O=C1NCCc2[nH]c(-c3c(F)ccc4ccc(Nc5ccccc5)nc34)cc21 [Example 227, 2-(7-fluoro-2-(phenylamino)quinolin-8-yl)-6,7-dihydro-1H-pyrrolo[3,2-c]pyridin-4(5H)-one]	
4.5	10.5	8440	Cc1cc2cccc(-c3cc4c([nH]3)CCNC4=O)c2nc1Nc1ccc(Br)cc1 [Example 106, 2-(2-((4-bromophenyl)amino)-3-methylquinolin-8-yl)-6,7-dihydro-1H-pyrrolo[3,2-c]pyridin-4(5H)-one]	
2.6	4.7	3580	O=C1NCCc2[nH]c(-c3cccc4ccc(Oc5c(F)cccc5F)nc34)cc21 [Example 176, 2-(2-(2,6-difluorophenoxy)quinolin-8-yl)-6,7-dihydro-1H-pyrrolo[3,2-c]pyridin-4(5H)-one]	
0.8	1.2	407	Cc1cc2cccc(-c3cc4c([nH]3)CCNC4=O)c2nc1Nc1ccccc1 [Example 105, 2-(3-methyl-2-(phenylamino)quinolin-8-yl)-6,7-dihydro-1H-pyrrolo[3,2-c]pyridin-4(5H)-one]	
3.6	19	5500	O=C1NCCc2[nH]c(-c3cccc4ccc(NC5CCCC5)nc34)cc21 [Example 78, 2-(2-(cyclopentylamino)quinolin-8-yl)-6,7-dihydro-1H-pyrrolo[3,2-c]pyridin-4(5H)-one]	
2.2	4.3	1490	CCN(c1ccccc1)c1cnc2cccc(-c3cc4c([nH]3)CCNC4=O)c2n1 [Example 186, 2-(3-(ethyl(phenyl)amino)quinoxalin-5-yl)-6,7-dihydro-1H-pyrrolo[3,2-c]pyridin-4(5H)-one]	
5.8	5.5	371	Cc1nc2cccc(-c3cc4c([nH]3)CCNC4=O)c2nc1NC1CCCC1 [Example 130, 2-(3-(cyclopentylamino)-2-methylquinoxalin-5-yl)-6,7-dihydro-1H-pyrrolo[3,2-c]pyridin-4(5H)-one]	
1.5	13.4	6740	O=C1NCCc2[nH]c(-c3cccc4ccc(Nc5ccccc5Cl)nc34)cc21 [Example 108, 2-(2-((2-chlorophenyl)amino)quinolin-8-yl)-6,7-dihydro-1H-pyrrolo[3,2-c]pyridin-4(5H)-one]	
1.2	4.6	1170	O=C1NCCc2[nH]c(-c3cccc4ccc(Nc5ccccc5F)nc34)cc21 [Example 6, 2-(2-((2-fluorophenyl)amino)quinolin-8-yl)-6,7-dihydro-1H-pyrrolo[3,2-c]pyridin-4(5H)-one]	
